From patent US10233143B2, “Pseudoceramide compound, and external use skin preparation composition containing same” (AE KYUNG INDUSTRIAL CO., LTD, priority 2014, dated 2019) come the findings set out here.

For assay [1], the system named is HaCaT human keratinocyte cells. Kind of assay: Cytotoxicity assay (MTT). The assay is classed as cell-based. The following applies: one day incubation, absorbance 540 nm. As to the method: Extents of citotoxicity were measured using HaCaT human keratinocyte cells. The HaCaT human keratinocyte cells were maintained in Dulbecco's modified Eagle's medium (DMEM) supplemented with 10% fetal bovine serum (FBS)] and then seeded onto 96-well plates with a concentration of 6×10^3 cells to be cultured at 37° C. in a 5% CO2 atmosphere for one day. Then, the DMEM was replaced with a new one and samples were treated by a serial dilution method with various concentrations ranging from 2.5 mM and then incubated for one day. After one day, 10 μl MTT reagents were treated with a 5 mg/mL concentration in media and the HaCaT cells were then incubated at 37° C. in a 5% CO2 atmosphere for 4 hours. The media were removed and 150 μl DMSO reagent was added to each well to dissolve violet crystals. Absorbance at 540 nm was measured.
A reaction solution without a sample was used as a negative control group. A cell growth rate for each sample solution was calculated by the following equation (1) and the results are shown in FIG. 7: Cell growth rate (%)=A/B×100 (1)
B: Absorbance of negative control group

Assay [2] can be described thus: Strengthening internal hair tissues: hair breakage after 10,000 brushings (Experimental Example 3). The following applies: for Numbers of broken hairs: hair essence with 0.2 wt % of the substance applied once, among 4,000 strands after 10,000 brushings, untreated 89; for Hair breakage improvement rate: hair essence with 0.2 wt % of the substance, versus untreated hairs. On the procedure:
A formulation of hair essence including novel compounds comprising pseudoceramide prepared in Example 7, a formulation of hair essence including conventional pseudoceramide prepared in Comparative Example 5, a formulation of hair essence without pseudoceramide prepared in Comparative Example 6 were evaluated in view of internal hair tissue strengthening effect. The internal hair tissue strengthening effect was tested in the following manner.
After hairs damaged by permanent weaving, bleaching, shampooing, thermal stimulation, brushing and so on were prepared, ceramide administered essence was applied once to the damaged hairs. In order to evaluate strengths of internal tissues of the hair, after the hair was brushed 10,000 times, a hair breakage improvement rate was calculated using the number of broken strands of untreated hairs and the number of broken strands of treated hairs. The number of hairs used in the experiment was 4,000 in total for each sample.
The hair breakage improvement rate was calculated by the following equation: Breakage improvement rate (%)=(Number of broken strands of untreated hairs−Number of broken strands of treated hairs)/Number of broken strands of untreated hairs

The subject of assay [3] is Propionibacterium acnes (ATCC 6919). Kind of assay: Minimum inhibitory concentration against Propionibacterium acnes (agar medium). The assay is classed as cell-based. The following applies: media treated with the sample. On the procedure:
To investigate anti-microvial activity of the pseudoceramide compound represented by Formula 3 according to the present invention against propionibacterium acnes, the minimum inhibitory concentration (MIC) of the pseudoceramide sample was measured in the following manner. The sample to be tested was added to reinforced clostridial agar medium (commercially available from Difco Co.) in an amount of 0.06 to 1.0%, followed by solidification of the medium. The suspension of pre-incubated Propionibacterium acnes ATCC 6919 was streaked on the surface of the medium and the medium was incubated for 3 days at 37° C. under anaerobic condition.

As for `CCCCCCCC/C=C/CCCCCCCCNC(=O)CC(/C=C/CCCCCCCCCC)C(=O)O` (stereo not drawn) [Formula 3], the “half maximum inhibitory concentration (IC50), cell growth rate” value in assay [1] is on record as 516.83 ppm. In assay [2], the “Numbers of broken hairs” value is recorded as 31 and the “Hair breakage improvement rate” value came out at 64%. In addition, in assay [3], the “growth of strain in treated media (FIG. 8)” value is listed as “no strain was expressed”.

In the case of `CCCCCCCCCCCCCCCCCC(=O)N[C@@H](CO)[C@H](O)[C@H](O)CCCCCCCCCCCCCC` [ceramide 3, reference compound], in assay [2], the “Numbers of broken hairs” value was 63 and the “Hair breakage improvement rate” value is listed as 27%.
